≈ marks a conversion by molar mass, not a printed value.
What was measured:
Assay type in all cases: cell-based
[1] = test system: Staphylococcus aureus FDA 209PJc-1; test: Antibacterial activity, agar-dilution MIC, organism No. 1; details: Staphylococcus aureus, FDA209PJC1; Organism No. 1, bouillon-agar; read-out: Minimum Inhibitory Concentration
How it was run: (§1)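 Dilution in agar (bouillon-agar base) is the format; activity is expressed as MIC, μg per ml medium.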

[2] = test system: Staphylococcus aureus Terajima; test: Antibacterial activity, agar-dilution MIC, organism No. 2; details: Staphylococcus aureus; Organism No. 2, bouillon-agar; read-out: Minimum Inhibitory Concentration
How it was run: as §1

[3] = test system: Staphylococcus aureus MS 353; test: Antibacterial activity, agar-dilution MIC, organism No. 3; details: Staphylococcus aureus, MS353; Organism No. 3, bouillon-agar; read-out: Minimum Inhibitory Concentration
How it was run: as §1

[4] = test system: Streptococcus pyogenes Cook; test: Antibacterial activity, agar-dilution MIC, organism No. 4; details: Streptococcus pyogenes; Organism No. 4, bouillon-agar; read-out: Minimum Inhibitory Concentration
How it was run: as §1

[5] = test system: Escherichia coli NIHJ-JC-2; test: Antibacterial activity, agar-dilution MIC, organism No. 5; details: Escherichia coli, NIHJJC2; Organism No. 5, bouillon-agar; read-out: Minimum Inhibitory Concentration
How it was run: as §1

[6] = test system: Escherichia coli K12 C600 IAM 1264; test: Antibacterial activity, agar-dilution MIC, organism No. 6; details: Escherichia coli, IAM1264; Organism No. 6, bouillon-agar; read-out: Minimum Inhibitory Concentration
How it was run: as §1

[7] = test system: Klebsiella pneumoniae PCI-602; test: Antibacterial activity, agar-dilution MIC, organism No. 7; details: Klebsiella pneumoniae, PCI602; Organism No. 7, bouillon-agar; read-out: Minimum Inhibitory Concentration
How it was run: as §1

[8] = test system: Salmonella typhimurium IID 971; test: Antibacterial activity, agar-dilution MIC, organism No. 8; details: Salmonella enterica; Organism No. 8, bouillon-agar; read-out: Minimum Inhibitory Concentration
How it was run: as §1

[9] = test system: Salmonella typhi 901; test: Antibacterial activity, agar-dilution MIC, organism No. 9; details: Salmonella enterica, TYPHI, read-out: Minimum Inhibitory Concentration
How it was run: as §1

[10] = test system: Salmonella paratyphi-A 1015; test: Antibacterial activity, agar-dilution MIC, organism No. 10; details: Salmonella enterica, PARATYPHI, read-out: Minimum Inhibitory Concentration
How it was run: as §1

[11] = test system: Salmonella shottmuelleri 8006; test: Antibacterial activity, agar-dilution MIC, organism No. 11; details: Salmonella, 8006; Organism No. 11, bouillon-agar; read-out: Minimum Inhibitory Concentration
How it was run: as §1

[12] = test system: Salmonella enteritidis G 14; test: Antibacterial activity, agar-dilution MIC, organism No. 12; details: Salmonella enterica, ENTERITIDIS; Organism No. 12, bouillon-agar; read-out: Minimum Inhibitory Concentration
How it was run: as §1

[13] = test system: Bacillus subtilis ATCC 6633; test: Antibacterial activity, agar-dilution MIC, organism No. 14; details: Bacillus subtilis, ATCC6633; Organism No. 14, bouillon-agar; read-out: Minimum Inhibitory Concentration
How it was run: as §1

[14] = test system: Pseudomonas aeruginosa IFO 3445; test: Antibacterial activity, agar-dilution MIC, organism No. 15; details: Pseudomonas aeruginosa, IFO3445; Organism No. 15, bouillon-agar; read-out: Minimum Inhibitory Concentration
How it was run: as §1

[15] = test system: Pseudomonas aeruginosa NCTC 10490; test: Antibacterial activity, agar-dilution MIC, organism No. 16; details: Pseudomonas aeruginosa, NCTC10490; Organism No. 16, bouillon-agar; read-out: Minimum Inhibitory Concentration
How it was run: as §1

[16] = test system: Pseudomonas aeruginosa PAO 1; test: Antibacterial activity, agar-dilution MIC, organism No. 17; details: Pseudomonas aeruginosa, PAO1; Organism No. 17, bouillon-agar; read-out: Minimum Inhibitory Concentration
How it was run: as §1

[17] = test system: Proteus morganii IFO 3848; test: Antibacterial activity, agar-dilution MIC, organism No. 18; details: Morganella morganii, IFO3848; Organism No. 18, bouillon-agar; read-out: Minimum Inhibitory Concentration
How it was run: as §1

[18] = test system: Proteus mirabilis IFO 3849; test: Antibacterial activity, agar-dilution MIC, organism No. 19; details: Proteus mirabilis, IFO3849; Organism No. 19, bouillon-agar; read-out: Minimum Inhibitory Concentration
How it was run: as §1

[19] = test system: Proteus vulgaris OX-19; test: Antibacterial activity, agar-dilution MIC, organism No. 20; details: Proteus vulgaris, OX19; Organism No. 20, bouillon-agar; read-out: Minimum Inhibitory Concentration
How it was run: as §1

[20] = test system: Proteus vulgaris HX-19; test: Antibacterial activity, agar-dilution MIC, organism No. 21; details: Proteus vulgaris, HX19; Organism No. 21, bouillon-agar; read-out: Minimum Inhibitory Concentration
How it was run: as §1

[21] = test system: Proteus rettgeri IFO 3850; test: Antibacterial activity, agar-dilution MIC, organism No. 22; details: Providencia rettgeri, IFO3850; Organism No. 22, bouillon-agar; read-out: Minimum Inhibitory Concentration
How it was run: as §1

[22] = test system: Enterobacter aerogenes ATCC 13048; test: Antibacterial activity, agar-dilution MIC, organism No. 23; details: Klebsiella aerogenes, ATCC13048; Organism No. 23, bouillon-agar; read-out: Minimum Inhibitory Concentration
How it was run: as §1

[23] = test system: Enterobacter cloacae 963; test: Antibacterial activity, agar-dilution MIC, organism No. 24; details: Enterobacter cloacae, 963; Organism No. 24, bouillon-agar; read-out: Minimum Inhibitory Concentration
How it was run: as §1

[24] = test system: Micrococcus luteus ATCC 9341; test: Antibacterial activity, agar-dilution MIC, organism No. 25; details: Micrococcus luteus, ATCC9341; Organism No. 25, bouillon-agar; read-out: Minimum Inhibitory Concentration
How it was run: as §1

[25] = test system: Streptococcus pyogenes IFO 3340; test: Antibacterial activity, agar-dilution MIC, organism No. 26; details: Streptococcus pyogenes, IFO3340; Organism No. 26, bouillon-agar; read-out: Minimum Inhibitory Concentration
How it was run: as §1

[26] = test system: Streptococcus faecium IFO 3826; test: Antibacterial activity, agar-dilution MIC, organism No. 27; details: Enterococcus faecium, IFO3826; Organism No. 27, bouillon-agar; read-out: Minimum Inhibitory Concentration
How it was run: as §1

[27] = test system: Mycoplasma pneumoniae IID817; test: Antimycoplasmal activity, MIC by phenol red colour change, organism No. 28; details: Mycoplasma, IID817; Organism No. 28, PPLO broth + 1% glucose, 37° C.; read-out: Minimum Inhibitory Concentration (MIC)
Method: Mycoplasma pneumoniae IID817 was used as the test microorganism in a culture medium prepared by adding 1% of glucose to "PPLO broth (manufactured by Difco Co.) liquid culture medium" at 37° C. with phenol red as an indicator, thereby culturing the test microorganism.

[28] = test system: Candida albicans IAM 4905; test: Antifungal activity, agar-dilution MIC, organism No. 29; details: Candida albicans, IAM4905; Organism No. 29, bouillon-agar; read-out: Minimum Inhibitory Concentration
How it was run: as §1

[29] = test system: Aspergillus niger IFO 6342; test: Antifungal activity, agar-dilution MIC, organism No. 30; details: Aspergillus niger, IFO6342; Organism No. 30, bouillon-agar; read-out: Minimum Inhibitory Concentration
How it was run: as §1

| SMILES | MIC [1] | MIC [2] | MIC [3] | MIC [4] | MIC [5] | MIC [6] | MIC [7] | MIC [8] | MIC [9] | MIC [10] | MIC [11] | MIC [12] | MIC [13] | MIC [14] | MIC [15] | MIC [16] | MIC [17] | MIC [18] | MIC [19] | MIC [20] | further results |
| --- | --- | --- | --- | --- | --- | --- | --- | --- | --- | --- | --- | --- | --- | --- | --- | --- | --- | --- | --- | --- | --- |
| [C-]#[N+]C12CC3(/C=C/C(=O)Nc4ccccc4C)OC3C1O2 (stereo not drawn) [compound 39] | 0.78 µg/mL (≈ 2.76 µM) | 3.13 µg/mL (≈ 11.1 µM) | 1.56 µg/mL (≈ 5.53 µM) | 100 µg/mL (≈ 354 µM) | > 200 µg/mL | > 200 µg/mL | 1.56 µg/mL (≈ 5.53 µM) | > 200 µg/mL | 25 µg/mL (≈ 88.6 µM) | 12.5 µg/mL (≈ 44.3 µM) | 3.13 µg/mL (≈ 11.1 µM) | 50 µg/mL (≈ 177 µM) | > 200 µg/mL | > 200 µg/mL | > 200 µg/mL | > 200 µg/mL | 100 µg/mL (≈ 354 µM) | > 200 µg/mL | 6.25 µg/mL (≈ 22.1 µM) | < 0.05 µg/mL | MIC [21]: > 200 µg/mL; MIC [22]: > 200 µg/mL; MIC [23]: 200 µg/mL (≈ 708 µM); MIC [24]: < 0.05 µg/mL; MIC [25]: 25 µg/mL (≈ 88.6 µM); MIC [26]: 200 µg/mL (≈ 708 µM); MIC [27]: < 0.2 µg/mL; MIC [28]: 0.39 µg/mL (≈ 1.38 µM); MIC [29]: 1.56 µg/mL (≈ 5.53 µM) |
| [C-]#[N+]C12CC3(/C=C/C(=O)Nc4ccc(Cl)cc4)OC3C1O2 (stereo not drawn) [compound 40] | < 0.05 µg/mL | 0.1 µg/mL (≈ 0.33 µM) | < 0.05 µg/mL | 200 µg/mL (≈ 661 µM) | > 200 µg/mL | > 200 µg/mL | < 0.05 µg/mL | 12.5 µg/mL (≈ 41.3 µM) | 0.39 µg/mL (≈ 1.29 µM) | 0.1 µg/mL (≈ 0.33 µM) | 0.1 µg/mL (≈ 0.33 µM) | 3.13 µg/mL (≈ 10.3 µM) | 6.25 µg/mL (≈ 20.6 µM) | > 200 µg/mL | > 200 µg/mL | > 200 µg/mL | 3.13 µg/mL (≈ 10.3 µM) | > 200 µg/mL | 0.1 µg/mL (≈ 0.33 µM) | < 0.05 µg/mL | MIC [21]: 6.25 µg/mL (≈ 20.6 µM); MIC [22]: > 200 µg/mL; MIC [23]: 200 µg/mL (≈ 661 µM); MIC [24]: < 0.05 µg/mL; MIC [25]: 0.39 µg/mL (≈ 1.29 µM); MIC [26]: > 200 µg/mL; MIC [27]: < 0.2 µg/mL; MIC [28]: 0.39 µg/mL (≈ 1.29 µM); MIC [29]: 1.56 µg/mL (≈ 5.15 µM) |
| [C-]#[N+]C12CC3(/C=C/C(=O)Nc4cccc(Cl)c4)OC3C1O2 (stereo not drawn) [compound 41] | 0.2 µg/mL (≈ 0.661 µM) | 0.39 µg/mL (≈ 1.29 µM) | 0.1 µg/mL (≈ 0.33 µM) | > 200 µg/mL | > 200 µg/mL | 200 µg/mL (≈ 661 µM) | < 0.05 µg/mL | 3.13 µg/mL (≈ 10.3 µM) | 3.13 µg/mL (≈ 10.3 µM) | 0.78 µg/mL (≈ 2.58 µM) | 0.2 µg/mL (≈ 0.661 µM) | 3.13 µg/mL (≈ 10.3 µM) | 1.56 µg/mL (≈ 5.15 µM) | > 200 µg/mL | > 200 µg/mL | > 200 µg/mL | 0.1 µg/mL (≈ 0.33 µM) | > 200 µg/mL | 0.78 µg/mL (≈ 2.58 µM) | < 0.05 µg/mL | MIC [21]: 3.13 µg/mL (≈ 10.3 µM); MIC [22]: > 200 µg/mL; MIC [23]: 50 µg/mL (≈ 165 µM); MIC [24]: < 0.05 µg/mL; MIC [25]: 0.39 µg/mL (≈ 1.29 µM); MIC [26]: 3.13 µg/mL (≈ 10.3 µM); MIC [27]: < 0.2 µg/mL; MIC [28]: 0.8 µg/mL (≈ 2.64 µM); MIC [29]: 1.56 µg/mL (≈ 5.15 µM) |
